Laboratory results as given in US20140272066A1, “GLUTAMIC ACID DERIVATIVES” (Givaudan S.A., priority 2011, published 2014).

Tests used:
[1] = Flavourist taste panel, solution B (with compound) rated against reference solution A; type: in vivo, human; conditions: 10 ppm compound in 0.5% NaCl and 0.03% MSG, vs solution A; scale -3 (much lower than base) to 3 (much higher); average of 4 flavourists
Method: Two solutions were prepared:
The samples were tasted by a small group of flavourists (2 male, 2 female, aged between 30 and 60). The intensity of the umami and salt taste of solution B was compared with that of the reference (solution A) and rated according to the following intensity scale:
The results (average of ratings given by the flavourists) were: […]

[2] = at concentrations comparable to MSG; cited from earlier work
[3] = Flavourist comparison of bouillon with and without compound; type: in vivo, human; conditions: 200 ppm in bouillon; 4 flavourists
Method: A bouillon mix was prepared from 155.0 g of sodium chloride, 157.0 g of dextrose monohydrate (ex Tapioca), 0.2 g of celery oleoresin, 0.3 g of oleoresin turmeric Vegex, 0.2 g of oleoresin coriander seed, 444.8 g maltodextrin 5-8 DE, 40.0 g vegetable oil soya bean refined, 30.0 g yeast standard light, 4.0 g of onion powder, 4.0 g of garlic powder, 0.5 g of white pepper and 164.0 g of potato starch.
32 g of the well-mixed ingredients was added to 1 L of boiling water and stirred until completely dissolved.
A small group of flavourists (2 male, 2 female) compared the taste of the reference bouillon with that of a batch of the same bouillon containing 200 ppm of DL-threo-3-methylglutamic acid.

[4] = Flavourist comparison of white sauce with and without compound; type: in vivo, human; conditions: 200 ppm in white sauce; 4 flavourists
Method: A white sauce mix was prepared from 380 g of modified starch Prejel, 200 g of whey powder Esprion 300, 200 g of fat powder (ex DMV), 115 g of sodium chloride, 85.3 g of maltodextrin 14, 3 g of onion powder, 0.2 g of curcuma extract powder (ex turmeric), 1.5 g of white pepper and 15 g of probase high impact.
80 g of the well-mixed ingredients was added to 1 L of boiling water and stirred well.
A small group of flavourists (2 male, 2 female) compared the taste of the reference white sauce with that of a batch of the same white sauce containing 200 ppm of DL-threo-3-methylglutamic acid.

[5] = Flavourist comparison of Béchamel sauce with cheese with and without compound; type: in vivo, human; conditions: 200 ppm in Béchamel sauce with cheese; 4 flavourists
Method: A Béchamel sauce with cheese was prepared from 70 g of butter, 50 g of flower, 1000 g of milk, 5 g of sodium chloride, 0.3 g of MSG, 0.15 g of nutmeg powder, 0.25 g of black pepper and 80 g of cheese powder. A blanc roux was prepared from the butter and flower before adding the other ingredients.
A small group of flavourists (2 male, 2 female) compared the taste of the reference Béchamel sauce with cheese with that of a batch of the same Béchamel sauce with cheese containing 200 ppm of DL-threo-3-methylglutamic acid.

CCCC(CC(=O)O)C(N)C(=O)O (stereo not shown) [2-amino-3-propylpentanedioic acid, 2-amino-3-propylpentanedioic Acid]
Intensity Taste Salt (NaCl) [1]: 0.33 | Intensity Taste Umami [1]: 0.33

N[C@@H](CC(=O)O)C(=O)O [aspartic acid]
Umami taste [2]: hardly any umami taste

CCCCCC(CC(=O)O)C(N)C(=O)O (stereo not shown) [2-amino-3-pentylpentanedioic acid, 2-amino-3-pentylpentanedioic Acid]
Intensity Taste Salt (NaCl) [1]: 0.00 | Intensity Taste Umami [1]: 0.33

CC(CC(=O)O)C(N)C(=O)O (racemic) [DL-threo-3-methylglutamic acid, DL-threo-3-methylglutamic Acid]
Taste of test bouillon compared with reference bouillon [3]: more umami, had an enhanced body of salt and was more salivating | Taste of test white sauce compared with reference sauce [4]: fuller and slightly more umami | Taste of test Béchamel sauce with cheese compared with reference [5]: richer and more longlasting | Intensity Taste Salt (NaCl) [1]: 0.33 | Intensity Taste Umami [1]: 1.00
